Results on 24 compounds are retold here after ChEMBL document CHEMBL5729568, “Ras inhibitors” (2023).

Test [1] is described as follows: (§1) Biochemical Assay: A variety of Ras proteins may be inhibited by compounds of the present invention (e.g., K-Ras, N-Ras, H-Ras, and mutants thereof at positions 12, 13 and 61, such as G12C, G12D, G12V, G12S, G13C, G13D, and Q61L, and others described herein). The purpose of this biochemical assay is to measure the ability of test compounds to covalently label nucleotide-loaded K-Ras isoforms. […] The sample is incubated at 25? C. for a time period of up to 24 hours prior to quenching by the addition of 10 uL of 5% Formic Acid. Quenched samples are centrifuged at 15000 rpm for 15 minutes in a benchtop centrifuge before injecting a 10 uL aliquot onto a reverse phase C4 column and eluting into the mass spectrometer with an increasing acetonitrile gradient in the mobile phase. Analysis of raw data may be carried out using Waters MassLynx MS software, with % bound calculated from the deconvoluted protein peaks for labeled and unlabeled K-Ras.

Test [2] is described as follows: as §1. The source holds these as a separate data set.
A short description of test [3]: as §1. This is another data set of the same source.
Test [4] can be described thus: as §1. The source holds these as a separate data set.
The nature of test [5]: as §1. The source holds these as a separate data set.

Broadly, the IC50 is the midpoint of a concentration-inhibition curve. For `C=CC(=O)N1CC[C@]2(CCN(C(=O)N(C)[C@H](C(=O)N[C@@H]3Cc4cc(O)cc(c4)-c4ccc5c(c4)c(c(-c4ccccc4CCOC)n5CC)CC(C)(C)COC(=O)[C@@H]4CCCN(N4)C3=O)C(C)C)C2=O)C1`, the half-inhibitory concentration (IC50) result in test [1] is “in the range around 5.5 µM”; in test [2], “in the range around 5.5 µM”; in test [3], “in the range around 0.55 µM”.
With `CCn1c(-c2cccnc2C(C)OC)c2c3cc(ccc31)-c1cc(cc(C(F)F)c1)C[C@H](NC(=O)C(COC1CN(C(=O)C#CC(C)(C)N(C)C)C1)C(C)C)C(=O)N1CCC[C@H](N1)C(=O)OCC(C)(C)C2` (stereo not given in full), the IC50 was greater than 10 µM in test [1]; greater than 10 µM in test [2]; greater than 10 µM in test [3]; greater than 10 µM in test [4]; “in the range around 0.55 µM” in test [5].
For `C=CC(=O)C1C[C@@H](C(=O)N(C)[C@H](C(=O)N[C@@H]2Cc3cc(O)cc(c3)-c3cnc4c(c3)c(c(-c3ccccc3CCOC)n4CC)CC(C)(C)COC(=O)[C@@H]3CCCN(N3)C2=O)C(C)C)CN1` (stereo not given in full), the IC50 entry in test [1], in test [2] and in test [5] was “in the range around 5.5 µM” each time.
Turning to `C=CC(=O)N1CC(OCC(C(=O)N[C@H]2Cc3nc(cs3)-c3ccc4c(c3)c(c(-c3cccnc3C(C)OC)n4CC)CC(C)(C)COC(=O)[C@@H]3CCCN(N3)C2=O)C(C)C)C1` (stereo not given in full), the 50% inhibitory concentration (IC50) result in test [1] was “in the range around 5.5 µM”; in test [2], “in the range around 5.5 µM”; in test [3], “in the range around 5.5 µM”; in test [4], “in the range around 5.5 µM”; in test [5] it was “in the range around 0.55 µM”.
`CCn1c(-c2cccnc2[C@H](C)OC)c2c3cc(ccc31)-c1cc(O)cc(c1)C[C@H](NC(=O)[C@H](C(C)C)N(C)C(=O)c1nc(NC(=O)/C=C/CN(C)C)cs1)C(=O)N1CCC[C@H](N1)C(=O)OCC(C)(C)C2`: the IC50 entry in test [1] is “in the range around 5.5 µM”; in test [3], “in the range around 0.055 µM”; in test [4], “in the range around 5.5 µM”.
On to `C=CC(=O)N1CC[C@H](C(=O)N(C)[C@H](C(=O)N[C@H]2Cc3cccc(c3)-c3ccc4c(c3)c(c(-c3cc(C5=CCN(C)CC5)cnc3C(C)OC)n4CC)CC(C)(C)COC(=O)[C@@H]3CCCN(N3)C2=O)C(C)C)C1` (stereo not given in full), for which the IC50 was greater than 10 µM in test [1]; greater than 10 µM in test [2]; “in the range around 5.5 µM” in test [3]; greater than 10 µM in test [4]; “in the range around 5.5 µM” in test [5].
Regarding `C=CC(=O)N1CC[C@H](C(=O)N(C)[C@H](C(=O)N[C@H]2Cc3cc(OC(=O)NCC(=O)O)cc(c3)-c3ccc4c(c3)c(c(-c3ccccc3CCOC)n4CC)CC(C)(C)COC(=O)[C@@H]3CCCN(N3)C2=O)C(C)C)C1`, the IC50 entry is “in the range around 5.5 µM” in test [1], “in the range around 5.5 µM” in test [2] and “in the range around 0.55 µM” in test [3].
Turning to `CCn1c(-c2cccnc2C(C)OC)c2c3cc(ccc31)-c1cccc(c1)C[C@H](NC(=O)[C@H](C(C)C)N(C)C(=O)[C@H]1CCN(C(=O)/C=C/CF)C1)C(=O)N1CCC[C@H](N1)C(=O)OCC(C)(C)C2` (stereo not given in full), the concentration for half-maximal inhibition (IC50) result in test [1] is “in the range around 5.5 µM”; in test [2] it was “in the range around 5.5 µM”; in test [3], “in the range around 0.55 µM”; in test [4], “in the range around 5.5 µM”; in test [5] it was “in the range around 0.55 µM”.
As to `C=CC(=O)N1CC[C@H](C(=O)N(C)[C@H](C(=O)N[C@H]2Cc3cc(OC(=O)CCC(=O)O)cc(c3)-c3ccc4c(c3)c(c(-c3ccccc3CCOC)n4CC)CC(C)(C)COC(=O)[C@@H]3CCCN(N3)C2=O)C(C)C)C1`, the IC50 result in test [1] was “in the range around 5.5 µM”; in test [2], “in the range around 0.55 µM”; in test [3], “in the range around 5.5 µM”.
On to `C=CC(=O)N1CC(OCC(C(=O)N[C@H]2Cc3cccc(c3)-c3ccc4c(c3)c(c(-c3cccnc3C(C)OC)n4CC(F)(F)F)CC(C)(C)COC(=O)[C@@H]3CCCN(N3)C2=O)C(C)C)C1` (stereo not given in full), for which the IC50 was greater than 10 µM in test [1]; greater than 10 µM in test [2]; greater than 10 µM in test [3]; greater than 10 µM in test [4]; “in the range around 5.5 µM” in test [5].
On to `CCn1c(-c2ccccc2CCOC)c2c3cc(ccc31)-c1cc(O)cc(c1)C[C@H](NC(=O)[C@H](C(C)C)N(C)C(=O)[C@H]1CCN(C(=O)/C=C/CN(C)C)C1)C(=O)N1CCC[C@H](N1)C(=O)OCC(C)(C)C2`, for which the results for the half-inhibitory concentration (IC50) entry in test [1], in test [2] and in test [3] were “in the range around 0.55 µM”, “in the range around 0.55 µM” and “in the range around 5.5 µM”, respectively.
As to `CCn1c(-c2cnccc2COC)c2c3cc(ccc31)-c1cc(O)cc(c1)C[C@H](NC(=O)[C@H](C(C)C)N(C)C(=O)[C@H]1CCN(C(=O)C#CCN(C)C)C1)C(=O)N1CCC[C@H](N1)C(=O)OCC(C)(C)C2` (atropisomer, axis not shown), the IC50 in test [3] and in test [5] was less than 0.01 µM throughout.
With `C=CC(=O)N1CC[C@H](C(=O)N(C)[C@H](C(=O)N[C@H]2Cc3cc(O)cc(c3)-c3ccc4c(c3)c(c(-c3cccnc3[C@H](C)OC)n4CC)CC(C)(C)COC(=O)[C@@H]3CCCN(N3)C2=O)C(C)C)C1` (atropisomer M), the IC50 result was “in the range around 5.5 µM” in test [1]; “in the range around 5.5 µM” in test [2]; “in the range around 5.5 µM” in test [3]; “in the range around 5.5 µM” in test [4]; “in the range around 0.55 µM” in test [5].
As for `CCn1c(-c2cccnc2C(C)OC)c2c3cc(ccc31)-c1cccc(c1)C[C@H](NC(=O)CCOC1CN(C(=O)C#CC(C)(C)N(C)C)C1)C(=O)N1CCC[C@H](N1)C(=O)OCC(C)(C)C2` (stereo not given in full), the 50% inhibitory concentration (IC50) in test [1] is greater than 10 µM; in test [2], greater than 10 µM; in test [3], greater than 10 µM; in test [4], greater than 10 µM; in test [5], “in the range around 0.055 µM”.
`C=CC(=O)N1CC[C@H](C(=O)N(C)[C@H](C(=O)N[C@H]2Cc3nc(ns3)-c3ccc4c(c3)c(c(-c3cncnc3[C@H](C)OC)n4CC)CC(C)(C)CC=C[C@@H]3CCCN(N3)C2=O)C(C)C)C1` (stereo in doubt): the IC50 in test [1], in test [2], in test [3], in test [4] and in test [5] was greater than 10 µM each time.
For the compound `C=CC(=O)N1CC[C@H](C(=O)N(C)[C@H](C(=O)N[C@H]2Cc3cc(O)cc(c3)-c3ccc4c(c3)c(c(-c3cnccc3[C@H](C)OC)n4CC)CC(C)(C)COC(=O)[C@@H]3CCCN(N3)C2=O)C(C)C)C1`, the half-inhibitory concentration (IC50) entry in test [1], in test [2], in test [3] and in test [4] was “in the range around 0.055 µM” throughout.
For the compound `C=CC(=O)N1CC[C@H](C(=O)N(C)[C@H](C(=O)N[C@H]2Cc3cc(O)cc(c3)-c3ccc4c(c3)c(c(-c3ccncc3CCOC)n4CC)CC(C)(C)COC(=O)[C@@H]3CCCN(N3)C2=O)C(C)C)C1`, the IC50 entry in test [1], in test [2] and in test [3] was “in the range around 0.55 µM” in each case.
With `C=CC(=O)N1CC[C@H](C(=O)N(C)[C@H](C(=O)N[C@H]2Cc3cc(O)cc(c3)-c3ccc4c(c3)c(c(-c3ccccc3CO)n4CC)CC(C)(C)COC(=O)[C@@H]3CCCN(N3)C2=O)C(C)C)C1`, the figures for the IC50 result in test [1], in test [2] and in test [3] were “in the range around 0.55 µM”, “in the range around 0.55 µM” and “in the range around 5.5 µM”, respectively.
For `CCn1c(-c2cccnc2C(C)OC)c2c3cc(ccc31)-c1cc(O)cc(c1)C[C@H](NC(=O)[C@H](C(C)C)N(C)C(=O)c1ncc(NC(=O)/C=C/CN(C)C)n1C)C(=O)N1CCC[C@H](N1)C(=O)OCC(C)(C)C2` (stereo not given in full), the concentration for half-maximal inhibition (IC50) result in test [1] is “in the range around 0.55 µM”; in test [2] it was “in the range around 0.55 µM”; in test [3] it was less than 0.01 µM; in test [4], “in the range around 0.55 µM”; in test [5], less than 0.01 µM.
Turning to `C=CC(=O)Nc1cnc(C(=O)N(C)[C@H](C(=O)N[C@H]2Cc3cccc(c3)-c3ccc4c(c3)c(c(-c3cccnc3C(C)OC)n4CC)CC(C)(C)COC(=O)[C@@H]3CCCN(N3)C2=O)C(C)C)n1C` (stereo not given in full), the IC50 entry in test [1] is “in the range around 5.5 µM”; in test [2] it was “in the range around 5.5 µM”; in test [3], “in the range around 0.055 µM”; in test [4] it was “in the range around 5.5 µM”; in test [5], “in the range around 0.055 µM”.
As for `CCn1c(-c2cccnc2C(C)OC)c2c3cc(ccc31)-c1cccc(c1)C[C@H](NC(=O)[C@H](C(C)C)N(C)C(=O)[C@H]1CCN(C(=O)C#C[C@@H]3COCCN3C)C1)C(=O)N1CCC[C@H](N1)C(=O)OCC(C)(C)C2` (stereo not given in full), the IC50 entry in test [1] is “in the range around 5.5 µM”; in test [2], “in the range around 5.5 µM”; in test [3] it was “in the range around 5.5 µM”; in test [4] it was greater than 10 µM; in test [5] it was “in the range around 0.055 µM”.
On to `C=CC(=O)N1CC2(CCN([C@H](C(=O)N[C@H]3Cc4cc(O)cc(c4)-c4ccc5c(c4)c(c(-c4ccccc4CCOC)n5CC)CC(C)(C)COC(=O)[C@@H]4CCCN(N4)C3=O)C(C)C)C2=O)C1`, for which the concentration for half-maximal inhibition (IC50) result in test [1] is “in the range around 5.5 µM”.
For `C=CC(=O)N1CC[C@H](C(=O)N(C)[C@H](C(=O)N[C@H]2Cc3cc(O)cc(c3)-c3cc(F)c4c(c3)c(c(-c3ccccc3CCOC)n4CC)CC(C)(C)COC(=O)[C@@H]3CCCN(N3)C2=O)C(C)C)C1`, the IC50 result in test [2] was “in the range around 5.5 µM”.
In the case of `C=CC(=O)N1CC(OCC(C(=O)N[C@H]2Cc3cccc(c3)-c3ccc4c(c3)c(c(-c3cccnc3C(C)OC)n4CC)CC(C)(C)COC(=O)[C@@H]3CCCN(N3)C2=O)C(C)C)C1` (stereo not given in full), the values for the IC50 in test [1], in test [3] and in test [5] were greater than 10 µM, “in the range around 5.5 µM” and “in the range around 5.5 µM”, respectively.
